Data taken from US20230404956A1, “T[…] FOR […]” (Asklepion Pharmaceuticals LLC, priority 2022, published 2023).

Key:
[1] = test system: pediatric patients exposed to cardiopulmonary bypass in congenital heart defect surgery; assay: Phase 3 double-blind, placebo-controlled trial of citrulline in congenital heart defect surgery with cardiopulmonary bypass; type: in vivo
Experimental: A Phase 3 study was carried out as a double-blind, placebo-controlled trial to confirm the effect. The Phase 3 trial was performed in the US, EU, and Israel, using a modified intent-to-treat population (or modified full analysis set) of 190 patients, of whom 138 were in the US and 52 were ex-US.
The starting point for the analysis was consideration of the complete modified full analysis set, consisting of all enrolled patients who completed the protocol. […] The Modified Full Analysis Set consists of all enrolled patients who completed the protocol.
In the study protocol and accompanying pharmacy manual for both studies, citrulline dosing occurs in four distinct phases. Dose 1 is a loading dose added to the cardiopulmonary bypass fluids on a mg/kg basis. Dose 3 is a bolus administered following surgery on a mg/kg basis, and Dose 4 is an IV drip at 9 mg/kg/hour. No variation in administration of these doses was introduced during the course of the phase 3 study.
In contrast, Dose 2, the intraoperative dosing designed to compensate for ultrafiltration, was subject to some variation. Ultrafiltration during cardiac surgery is not standardized, and therefore, it was not possible to completely standardize this dose. The perfusionist estimates the volume of ultrafiltrate removed, as well as the volume of cardioplegia solution. The perfusionist then calculates according to the study pharmacy manual instructions the amount of citrulline to be administered to compensate for the ultrafiltered citrulline in order to maintain a specified therapeutic level.
Although the therapeutic target level was set at 100 micromolar during the phase 2 study, because of the potential for variation in Dose 2 (which is given intraoperatively to compensate for the routine ongoing ultrafiltration of circulating bypass fluids to reduce the circulating concentrations of inflammatory mediators) and the concern that some patients might inadvertently receive sub-therapeutic intraoperative levels, the target level for Dose 2 in the phase 3 study was increased to 200 micromolar. This was considered to be safe since no adverse effects of citrulline had been reported, even at substantially higher levels in medical use. In order to examine whether variation in Dose 2 could explain the results obtained, the actual dose received, shown as the percent of the targeted dose, was plotted against the composite variable results. Since placebos received no citrulline, they were plotted at the 0% level.
For the Phase 3 trial, a target intraoperative dose of […] (Dose 2) was chosen to preclude an inadvertent drop below an efficacious level in any patient. The potential for variation in intraoperative dosing arises from the lack of standardization of cardiopulmonary bypass ultrafiltration techniques. […] Nonetheless, expansion of the study to a greater number of sites raised the concern that some sites might inadvertently underdose Dose 2. Given the known innocuous nature of L-citrulline, an endogenous amino acid that is given medicinally in doses an order of magnitude higher than this to urea cycle disorder patients, as well as the well-tolerated high endogenous concentrations of citrulline in hypercitrullinemia patients, there was no concern for erring on the high side of the presumed effective dose.
To investigate the data in more detail, patients were stratified according to the dose level actually administered intraoperatively. The values obtained for duration of mechanical ventilation (MV), length of inotrope therapy (InoTx) and the composite primary (created for the SAP, based on the longer of the MV or InoTx) in any patient were segmented into groups based on the percent of the 200 μmol target dose actually received by the patient, by comparing patients who had received <65%, <75%, <85%, <95%, and >95% of the calculated target dose. […] Analysis was performed via two-sided Wilcoxon Rank Sum. […]

[2] = test system: nitric oxide production; assay: Nitric oxide production in a murine system, measured via NO metabolites
Text: It is important to recall that citrulline is regenerated in the last step of NO production, making negative feedback by citrulline a reasonable hypothesis. Alternatively, an acute increase in NO production, which is known to have a negative feedback effect on NOS (Viziri and Wang, 1999) could explain the results. […] The negative clinical effects in the >95% group for the Phase 3 trial may thus result from one or more negative feedback mechanisms. The negative feedback could result from either the effect of NO or the citrulline itself creating feedback on the system.

[3] = test system: pediatric patients undergoing surgical procedures involving cardiopulmonary bypass; details: 22 patients (11 Tx, 11 PL); Dose 2 100 μmol; cited from earlier work

SMILES: NC(=O)NCCC[C@H](N)C(=O)O [citrulline, L-citrulline]
- Composite (the longer of the MV or InoTx), median ([1]; <65% of target Dose 2, p = 0.0040 vs placebo): 1267.0 min
- Vent (duration of mechanical ventilation), median ([1]; <65% of target Dose 2, p = 0.0097 vs placebo): 139.0 min
- Inotrope (duration of inotrope therapy), median ([1]; <65% of target Dose 2, p = 0.0211 vs placebo): 1260.0 min
- PICU/NICU stay, median ([1]; <65% of target Dose 2, p = 0.0236 vs placebo): 2 days
- Hospitalization, median ([1]; <65% of target Dose 2, p = 0.0953 vs placebo): 4 days
- Long-term hospitalizations, citrulline-treated vs placebo ([1]; <75% of calculated Dose 2): fewer long-term hospitalizations
- Overall length of hospital stay, citrulline vs placebo ([1]; <75% of calculated Dose 2): not significantly different
- Reduction of median Composite time vs placebo ([1]; <75% of target Dose 2): 42%
- Reduction of median Inotrope time vs placebo ([1]; <75% of target Dose 2): 26%
- Reduction of median Mechanical Ventilation time vs placebo ([1]; <75% of target Dose 2): 70%
- Reduction of median PICU/NICU stay vs placebo ([1]; <75% of target Dose 2): 33%
- Composite (the longer of the MV or InoTx), median ([1]; <75% of target Dose 2, p = 0.0025 vs placebo): 1267.0 min
- Vent (duration of mechanical ventilation), median ([1]; <75% of target Dose 2, p = 0.0129 vs placebo): 170.0 min
- Inotrope (duration of inotrope therapy), median ([1]; <75% of target Dose 2, p = 0.0158 vs placebo): 1260.0 min
- PICU/NICU stay, median ([1]; <75% of target Dose 2, p = 0.0295 vs placebo): 2 days
- Hospitalization, median ([1]; <75% of target Dose 2, p = 0.1905 vs placebo): 5 days
- Composite (the longer of the MV or InoTx), median ([1]; <85% of target Dose 2, p = 0.0029 vs placebo): 1283.5 min
- Vent (duration of mechanical ventilation), median ([1]; <85% of target Dose 2, p = 0.0163 vs placebo): 176.0 min
- Inotrope (duration of inotrope therapy), median ([1]; <85% of target Dose 2, p = 0.0176 vs placebo): 1263.5 min
- PICU/NICU stay, median ([1]; <85% of target Dose 2, p = 0.0332 vs placebo): 2 days
- Hospitalization, median ([1]; <85% of target Dose 2, p = 0.1369 vs placebo): 5 days
- Composite (the longer of the MV or InoTx), median ([1]; <95% of target Dose 2, p = 0.0033 vs placebo): 1357.0 min
- Inotrope (duration of inotrope therapy), median ([1]; <95% of target Dose 2, p = 0.0242 vs placebo): 1300.0 min
- Vent (duration of mechanical ventilation), median ([1]; <95% of target Dose 2, p = 0.0459 vs placebo): 237.0 min
- PICU/NICU stay, median ([1]; <95% of target Dose 2, p = 0.1232 vs placebo): 2 days
- Hospitalization, median ([1]; <95% of target Dose 2, p = 0.3169 vs placebo): 5 days
- Hospitalization, median ([1]; >95% of target Dose 2, p = 0.0006 vs placebo): 7 days
- PICU/NICU stay, median ([1]; >95% of target Dose 2, p = 0.0034 vs placebo): 4 days
- Vent (duration of mechanical ventilation), median ([1]; >95% of target Dose 2, p = 0.0041 vs placebo): 2385.0 min
- Inotrope (duration of inotrope therapy), median ([1]; >95% of target Dose 2, p = 0.0069 vs placebo): 3142.5 min
- Composite (the longer of the MV or InoTx), median ([1]; >95% of target Dose 2, p = 0.0114 vs placebo): 3447.0 min
- Composite (the longer of the MV or InoTx), median ([1]; All Patients, p = 0.3398 vs placebo (median 2204.0)): 1640.0 min
- Hospitalization, median ([1]; All Patients, p = 0.3681 vs placebo (median 5)): 5 days
- Inotrope (duration of inotrope therapy), median ([1]; All Patients, p = 0.7131 vs placebo (median 1717.0)): 1514.0 min
- PICU/NICU stay, median ([1]; All Patients, p = 0.8484 vs placebo (median 3)): 3 days
- Vent (duration of mechanical ventilation), median ([1]; All Patients, p = 0.9205 vs placebo (median 574.5)): 672.0 min
- Reduction in the length of stay in the PICU or NICU following surgery ([1]; Dose 2 at levels <95%, statistically significant): one
- Duration of MV, InoTx and composite primary, vs placebo ([1]; all doses under 95% of the target, two-sided Wilcoxon Rank Sum): Statistically significant reduction of all variables
- Composite endpoint, treated vs placebo ([1]; complete modified full analysis set): no difference
- Effect on composite variable, duration of mechanical ventilation and inotrope therapy vs placebo ([1]; doses higher than 95% of target (>190 μmol)): statistically significant negative effect
- Nitric oxide production as measured via NO metabolites ([2]; continued increase in citrulline concentration): diminished production of NO
- Nitric oxide production ([2]; increasing levels of citrulline, initially): initially facilitate nitric oxide production
- Primary parameters (duration of MV & InoTx), treated vs placebo [3]: near-significance
